Assay results taken from US12419862B2, “Use of a cathepsin s inhibitor against the formation of anti-drug antibodies” (Hoffmann-La Roche Inc., priority 2018, dated 2025).
“Also recorded” adds a separate entry of the source.

Columns and labels:
[1] = tested on: CEA-specific IgG response; test: ADA against CEA-IL2v in wild-type mice, ELISA (Example 1, 28 days); assay type: in vivo, C57BL/6 wild type mice; conditions: 40 mg/kg/day via food admix from one week before first immunization until day 28, vs vehicle
Experimental: 15-week-old mice C57BL/6 wild type and C57BL/6-Tg (hIgG1,k,l) were purchased from Taconic (Denmark) and housed at the animal facilities under a 12 hour (h) light 12 h dark cycle with cycles of air ventilation and free access to water and food. 7×10 μg of CEA-112v or 7×10 μg of Humira (Adalimumab, Abbvie Germany GmbH) were injected respectively at day 0, 4, 7, 11, 14, 18 and 21 subcutaneously in the right flank or the left flank alternatively. The dosage of the cathepsin S inhibitor consumption was 40 mg/kg/day. The food admix (Ssniff Spezialdiäten, Germany) was given daily one day before the first immunization until day 28 for the mice immunized with Humira. The food admix was given daily one week before the first immunization until day 28 for the mice immunized with CEA-IL2v (R06895882). At day −12, 7, 14 and 28 blood samples were taken.
(§1) Nunc Maxisorp flat-bottom 96 well ELISA plates were coated with 100 μl per well of Humira or CEA-PGLALA (3.42 mg/ml, ID 8037) respectively at 5 μg/mL in NaHCO3100 mM buffer overnight at +4° C. The next day the ELISA plates were washed 3 times with PBS+0.05% Tween. […] 100 μl of substrate P-nitrophenyl phosphate ready to use (Life Technologies Cat no 002212) were added per well and after 10 min incubation at room temperature, the OD at 405 nm was read as an end-point measurement with a Versamax ELISA reader.

[2] = tested on: CEA-specific IgG response; test: ADA against CEA-IL2v in hIgG1 Tg mice, ELISA (Example 1, 28 days); assay type: in vivo, C57BL/6-Tg (hIgG1,k,l) mice; conditions: 40 mg/kg/day via food admix from one week before first immunization until day 28, vs vehicle
Excerpt: For immunogenicity assessment, we used the previously described human IgG1 immune-tolerant mouse model (Bessa, Boeckle et al. Pharm Res 2015, 32(7): 2344-2359). Since this human IgG transgenic mouse is tolerant to a broad range of human IgG1 antibodies (Abs), ADA responses elicited in this system are taken to reflect intrinsic immunogenic attributes of the eliciting Ab compounds also expected to cause ADA in humans.
15-week-old mice C57BL/6 wild type and C57BL/6-Tg (hIgG1,k,l) were purchased from Taconic (Denmark) and housed at the animal facilities under a 12 hour (h) light 12 h dark cycle with cycles of air ventilation and free access to water and food. 7×10 μg of CEA-112v or 7×10 μg of Humira (Adalimumab, Abbvie Germany GmbH) were injected respectively at day 0, 4, 7, 11, 14, 18 and 21 subcutaneously in the right flank or the left flank alternatively. The dosage of the cathepsin S inhibitor consumption was 40 mg/kg/day. […]
as §1, with “C.” for “C. The next day the ELISA plates were washed 3 times with PBS+0.05% Tween.”

[3] = tested on: IgG response to murine surrogate FAP-OX40; test: ADA against murine surrogate FAP-OX40 in wild-type mice, ELISA (Example 6); assay type: in vivo, C57BL/6 mice; conditions: 40 mg/kg/day via food admix from one week before first immunization until day 23
Experimental: 10-week-old female mice C57BL/6 were purchased from Charles River Laboratories (Germany) and housed at the animal facilities in room with air-conditioned under a 12 hours light/dark cycle in macrolon boxes with enriched environment and free access to water and food. 12.5 mg/kg of muFAP-OX40iMab (P1AD4396-005) were injected at day 1, 4 and 8 intravenously to the group 2 (n=10 mice) and at day 1, 4, 8, 11, 15, 18 and 22 to the group 3 (n=10 mice) respectively. The dosage of (2S,4R)-4-[4-(1-methyl-1H-pyrazol-4-yl)-2-trifluoromethyl-benzenesulfonyl]-1-(1-trifluoromethyl-cyclopropanecarbonyl)-pyrrolidine-2-carboxylic acid (1-cyano-cyclopropyl)-amide consumption was 40 mg/kg/day. […]
as §1, with “FAP(28H1)-OX40(49B4) PGLALA (P1AD4523)” for “Humira”, “anti OX40 moIgG2a (P1AD4561)” for “CEA-PGLALA (3.42 mg/ml, ID 8037)”, “C.” for “C. The next day the ELISA plates were washed 3 times with PBS+0.05% Tween.”, “Technologies,” for “Technologies”

SMILES: Cn1cc(-c2ccc(S(=O)(=O)[C@@H]3C[C@@H](C(=O)NC4(C#N)CC4)N(C(=O)C4(C(F)(F)F)CC4)C3)c(C(F)(F)F)c2)cn1 [cathepsin S inhibitor, (2S,4R)-4-[4-(1-methyl-1H-pyrazol-4-yl)-2-trifluoromethyl-benzenesulfonyl]-1-(1-trifluoromethyl-cyclopropanecarbonyl)-pyrrolidine-2-carboxylic acid (1-cyano-cyclopropyl)-amide]
- ADA to CEA-IL2v (CEA-specific IgG) [1]: reduces its levels in wild-type mice; also recorded: only partial reduction of ADA
- ADA to CEA-IL2v (CEA-specific IgG) [2]: prevents ADA to CEA-IL2v in hIgG transgenic mice; also recorded: complete abrogation of ADA to CEA-IL2v
- ADA specific to FAP (VHVL) domain of murine surrogate FAP-OX40 [3]: prevents ADA
- OX40-specific ADA to murine surrogate FAP-OX40 [3]: prevents ADA
